Columns and labels:
Type in all cases: biochemical
rhVAP-1 = target: T1, rhVAP-1 (Homo sapiens, UniProt Q16853); assay: VAP-1 Assay (fluorometric, Amplex Red/HRP, benzylamine substrate); details: rhVAP-1, benzylamine 50 μM, 30 minutes at 37° C., 10 mM NaHCO3 pH 7.4
T1 construct: purchased R&D Systems
T1 sequence (Q16853 1-763): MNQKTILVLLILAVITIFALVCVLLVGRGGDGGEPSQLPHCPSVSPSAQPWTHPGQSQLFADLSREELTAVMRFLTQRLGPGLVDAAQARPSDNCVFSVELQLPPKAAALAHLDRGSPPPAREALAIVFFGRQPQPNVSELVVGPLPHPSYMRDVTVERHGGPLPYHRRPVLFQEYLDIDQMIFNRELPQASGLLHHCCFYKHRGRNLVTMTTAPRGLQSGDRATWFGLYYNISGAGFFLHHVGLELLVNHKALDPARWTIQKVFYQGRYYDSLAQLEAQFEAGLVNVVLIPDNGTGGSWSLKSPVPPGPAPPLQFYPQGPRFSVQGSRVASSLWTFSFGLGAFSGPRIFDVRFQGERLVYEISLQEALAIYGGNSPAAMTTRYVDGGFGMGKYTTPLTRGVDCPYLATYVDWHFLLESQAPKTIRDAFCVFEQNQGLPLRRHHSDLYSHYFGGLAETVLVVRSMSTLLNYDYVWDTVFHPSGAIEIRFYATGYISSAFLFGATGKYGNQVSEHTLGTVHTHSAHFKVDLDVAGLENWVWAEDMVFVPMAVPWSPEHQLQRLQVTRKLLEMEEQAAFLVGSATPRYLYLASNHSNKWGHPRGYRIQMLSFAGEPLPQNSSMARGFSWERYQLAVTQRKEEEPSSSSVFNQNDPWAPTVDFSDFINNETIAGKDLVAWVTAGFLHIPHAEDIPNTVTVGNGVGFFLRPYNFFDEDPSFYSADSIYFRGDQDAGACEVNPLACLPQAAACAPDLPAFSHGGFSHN
Method: The capability of compounds described herein to inhibit the enzymatic activity of vascular adhesion protein-1 (VAP-1) was determined by fluorometric assay. The assay procedure provided by R&D Systems was modified slightly for use as an inhibitor screening assay. The assay measured the H2O2 generated from the oxidative deamination of benzylamine by rhVAP-1 by converting Amplex® Red to the fluorescent product, resorufin, via horseradish peroxidase (HRP) and H2O2. Reaction buffer was 10 mM NaHCO3, pH 7.4. A standard curve was prepared by serially diluting H2O2 in reaction buffer. A 10 μM solution of resorufin was prepared in reaction buffer and was dispensed to 2 wells. These wells served as positive control for maximum fluorescence. Reaction buffer was added to the individual wells so that the final volume in each well was 100 μL. Amplex Red was diluted to 1 mM in reaction buffer. A 10U stock of HRP was prepared in reaction buffer. A reaction cocktail was prepared by mixing equal parts 1 mM Amplex Red with 10U HRP with 3 parts reaction buffers. The reaction cocktail was added to the appropriate wells, so that that final concentration in the well was 0.05 mM Amplex Red and 0.5U HRP. A 200 μM solution of benzylamine was prepared in reaction buffer. Benzylamine was added to the appropriate wells so that the final concentration was 50 μM. Inhibitors were diluted in DMSO to 20× and distributed to the appropriate wells. UP-1207 served a positive control. rhVAP-1 was purchased from R&D Systems. The concentration used for each lot was determined so that the activity was equal to the first lot. Two wells were left blank as controls. The plate was incubated for 30 minutes at 37° C., protected from light under foil. The plate was read at 530/35 emission and 590/35 excitation. Data processing was performed using Excel and Prism software.
The capability of compounds described herein to inhibit the enzymatic activity of vascular adhesion protein-1 (VAP-1) was determined by fluorometric assay. The assay procedure provided by R&D Systems was modified slightly for use as an inhibitor screening assay. The assay measured the H2O2 generated from the oxidative deamination of benzylamine by rhVAP-1 by converting Amplex® Red to the fluorescent product, resorufin, via horseradish peroxidase (HRP) and H2O2. Amplex Red, HRP, Benzylamine, inhibitors (with DMSO as vehicle, 0.5% v/v) and rhVAP-1 were added to the wells. Assay was conducted in 10 mM NaHCO3, pH 7.4. A standard curve was prepared by serially diluting H2O2 in reaction buffer. The plate was incubated for 30 minutes at 37° C., protected from light under foil. The plate was read at 530/35 emission and 590/35 excitation. Data processing was performed using Prism software.

rhMAO-A = target: T2, rhMAO-A (Homo sapiens, UniProt P21397); assay: MAO Assay (modified Promega MAO-Glo), MAO-A inhibition; details: substrate 10 μM, 1 hour at room temperature
T2 construct: purchased Sigma
T2 sequence (P21397 1-527): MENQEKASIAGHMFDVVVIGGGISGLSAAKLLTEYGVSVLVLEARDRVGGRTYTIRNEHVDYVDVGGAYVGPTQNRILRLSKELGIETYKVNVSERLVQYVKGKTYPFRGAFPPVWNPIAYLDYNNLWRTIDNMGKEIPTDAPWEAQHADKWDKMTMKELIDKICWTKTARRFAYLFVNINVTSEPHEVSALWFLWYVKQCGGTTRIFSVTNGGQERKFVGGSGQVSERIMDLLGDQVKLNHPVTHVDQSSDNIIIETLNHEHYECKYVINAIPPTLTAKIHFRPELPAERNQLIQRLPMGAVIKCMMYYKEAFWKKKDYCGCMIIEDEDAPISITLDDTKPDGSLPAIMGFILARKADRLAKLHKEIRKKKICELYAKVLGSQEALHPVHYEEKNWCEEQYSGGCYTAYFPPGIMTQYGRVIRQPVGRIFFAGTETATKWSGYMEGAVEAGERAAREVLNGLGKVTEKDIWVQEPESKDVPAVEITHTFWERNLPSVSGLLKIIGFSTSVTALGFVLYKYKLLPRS
Method: (§1) The capability of compounds described herein to inhibit MAO was determined using a modified Promega MAO-Glo™ assay kit. The substrate ((4S)-4,5-dihydro-2-(6-hydroxybenzothiazolyl)-4-thiazolecarboxylic acid) was converted by MAO to produce methyl ester luciferin. The luciferin was then converted by luciferase to produce oxyluciferin and light. The light was measured using a luminescence setting on the plate reader. A standard curve was prepared by serially diluting luciferin in reaction buffer. The standard kit reaction buffer was used—100 mM HEPES (pH 7.5), 5% glycerol. The substrate was dispensed into the wells so that the final concentration for MAO-A inhibition assay would be 10 μM and MAO-B inhibition assay would be 1 μM. Inhibitors were diluted in DMSO to 4× and distributed to the appropriate wells. Clorgyline and Deprenyl served as positive controls. rhMAO-A and rhMAO-B were purchased from Sigma. MAO-A or MAO-B was added to the appropriate wells. The plate was incubated for 1 hour, at room temperature with gentle shaking (90 rpm). The detection agent was added at equal volume (48 μL detection agent to 48 μL reaction). The plate was incubated for 20 minutes, at room temperature with gentle shaking (90 rpm). The plate luminescence was read. Data processing was performed using Prism software.
(§2) The capability of compounds described herein to inhibit MAO was determined using a modified Promega MAO-Glo™ assay. Test compounds, substrate and enzyme were incubated per manufacturer instructions for lhour, at room temperature with gentle shaking (90 rpm) before addition of detection agent. The detection agent was added at equal volume (48 μL detection agent to 48 μL reaction). The plate was incubated for 20 minutes, at room temperature with gentle shaking (90 rpm). The plate luminescence was read. Data processing was performed using Prism software.

rhMAO-B = target: T3, rhMAO-B (Homo sapiens, UniProt P27338); assay: MAO Assay (modified Promega MAO-Glo), MAO-B inhibition; details: substrate 1 μM, 1 hour at room temperature
T3 construct: purchased Sigma
T3 sequence (P27338 1-520): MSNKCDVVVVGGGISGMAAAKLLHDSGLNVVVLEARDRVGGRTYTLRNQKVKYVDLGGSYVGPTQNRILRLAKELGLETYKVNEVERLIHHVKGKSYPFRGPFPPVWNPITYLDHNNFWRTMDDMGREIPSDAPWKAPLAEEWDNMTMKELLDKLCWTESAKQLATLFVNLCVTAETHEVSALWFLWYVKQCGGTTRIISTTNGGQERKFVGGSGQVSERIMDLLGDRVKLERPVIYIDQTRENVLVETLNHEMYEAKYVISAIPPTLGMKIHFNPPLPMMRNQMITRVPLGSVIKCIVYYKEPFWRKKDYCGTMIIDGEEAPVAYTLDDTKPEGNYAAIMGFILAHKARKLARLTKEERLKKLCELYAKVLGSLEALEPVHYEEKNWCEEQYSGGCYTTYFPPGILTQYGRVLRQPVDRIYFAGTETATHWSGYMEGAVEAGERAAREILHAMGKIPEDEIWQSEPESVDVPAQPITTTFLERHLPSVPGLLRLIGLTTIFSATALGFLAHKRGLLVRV
Method: as §1, §2

Structure (SMILES) | IC50 (rhVAP-1) [nM] | IC50 (rhMAO-A; class symbols) [µM] | IC50 (rhMAO-B) [nM] | IC50 (rhMAO-A; cells printed as bound in μM) [µM]
CCCCc1cn2cc(OC/C(=C/F)CN)ccc2n1 [Example 1, (E)-2-(((2-butylimidazo[1,2-a]pyridin-6-yl)oxy)methyl)-3-fluoroprop-2-en-1-amine bis(4-methylbenzenesulfonate)] | < 100 | 10 to 30 | 1000 to 10000 | –
CCCCc1cn2ccc(OC/C(=C/F)CN)cc2n1 [Example 2, (E)-2-(((2-butylimidazo[1,2-a]pyridin-7-yl)oxy)methyl)-3-fluoroprop-2-en-1-amine 4-methylbenzenesulfonate] | < 100 | 10 to 30 | 10000 to 30000 | –
CCCCc1nc2cc(OC/C(=C/F)CN)ccn2n1 [Example 3, (E)-2-(((2-butyl-[1,2,4]triazolo[1,5-a]pyridin-7-yl)oxy)methyl)-3-fluoroprop-2-en-1-amine 4-methylbenzenesulfonate] | < 100 | 10 to 30 | 1000 to 10000 | –
CCCCc1nc2ccc(OC/C(=C/F)CN)cn2n1 [Example 4, (E)-2-(((2-butyl-[1,2,4]triazolo[1,5-a]pyridin-6-yl)oxy)methyl)-3-fluoroprop-2-en-1-amine 4-methylbenzenesulfonate] | < 100 | 10 to 30 | 100 to 1000 | –
CCCCc1cn2cc(OC/C(=C\F)CN)ccc2n1 [Example 5, (Z)-2-(((2-butylimidazo[1,2-a]pyridin-6-yl)oxy)methyl)-3-fluoroprop-2-en-1-amine 4-methylbenzenesulfonate] | < 100 | 10 to 30 | 1000 to 10000 | –
CCCCc1cc2ccc(OC/C(=C/F)CN)cn2n1 [Example 6] | < 100 | 10 to 30 | 100 to 1000 | –
CCCCc1cn2nc(OC/C(=C/F)CN)ccc2n1 [Example 7, (E)-2-(((2-butylimidazo[1,2-b]pyridazin-6-yl)oxy)methyl)-3-fluoroprop-2-en-1-amine 4-methylbenzenesulfonate] | < 100 | – | 100 to 1000 | > 50
CCCCc1cc2cc(OC/C(=C/F)CN)ccn2n1 [Example 8, (E)-2-(((2-butylpyrazolo[1,5-a]pyridin-5-yl)oxy)methyl)-3-fluoroprop-2-en-1-amine bis(4-methylbenzenesulfonate)] | < 100 | 1 to 10 | 100 to 1000 | –
NC/C(=C/F)COc1ccc2nc(C3CCCC3)cn2c1 [Example 9, (Z)-2-(((2-cyclopentylimidazo[1,2-a]pyridin-6-yl)oxy)methyl)-3-fluoroprop-2-en-1-amine 4-methylbenzenesulfonate] | < 100 | 1 to 10 | 1000 to 10000 | –
CCCCc1cn2cc(OC/C(=C/F)CNC(=O)OC(C)(C)C)cnc2n1 [Example 10, tert-butyl (E)-(2-(((2-butylimidazo[1,2-a]pyrimidin-6-yl)oxy)methyl)-3-fluoroallyl)carbamate] | < 100 | – | 1000 to 10000 | > 50
